Consider 20 molecules from patent US10800752B2, “Substituted naphtho[2,3-b]furans as water-soluble prodrugs for preventing and/or treating cancer” (BOSTON BIOMEDICAL, INC., priority 2015, dated 2020).

The nature of series [1]: Evaluation of a conversion rate to 2-acetylnaphtho[2,3-b]furan-4,9-dione in human plasma. Type of series: in vitro ADME. As to conditions: 1 umol/L; for % Measurement value of Activated form (conversion rate to 2-acetylnaphtho[2,3-b]furan-4,9-dione): human; for % Measurement value (conversion rate to 2-acetylnaphtho[2,3-b]furan-4,9-dione): Human plasma, 37° C., incubation time 120 min. As to the method:
(§1) For test compounds, the decrease rate of the test compounds and the conversion rate thereof to 2-acetylnaphtho[2,3-b]furan-4,9-dione in human plasma, CD1 mouse plasma, and pH 7.4 phosphate buffer solution were measured.
(§2) Test compounds were incubated at the concentration of 1 umol/L in human plasma (cat. no. 12250210, COSMO BIO), CD1 mouse plasma (cat. no. AP3054, KAC), and phosphate buffer solution at 37° C., and removed at predetermined times (0, 5, 10, 30, 60, and 120 minutes). After protein-removing treatment was performed, they are analyzed with LC-MS. It should be noted that the protein-removing treatment used acetonitrile containing: 10% volume of 1 mol/L hydrochloric acid; 1% volume of 46% citric acid; and phenytoin as an internal standard.
(§3) The measurement condition of LC-MS is as described below. LC-MS condition column: Kinetex 2.6 u PFP 100 A 50×2.1 mm Column temperature: 40° C.
(§4) Mobile phase: A: 0.1% formic acid-containing water
(§5) • B: 0.1% formic acid-containing acetonitrile A/B(min): 95/5(0)→5/95(3)→5/95(4)→95/5(4.1)→95/5(6) Flow rate: 0.4 mL/min Detection: ESI (positive mode) Injection volume: 10 uL
In the same way as Example 6, the incubation time was set as 120 minutes later, and the conversion rate of each of various test compounds to 2-acetylnaphtho[2,3-b]furan-4,9-dione in human plasma, CD1 mouse plasma, and pH 7.4 phosphate buffer solution was measured.

Series [2] is described as follows: Evaluation of a conversion rate to 2-acetylnaphtho[2,3-b]furan-4,9-dione in CD1 mouse plasma. Type of series: in vitro ADME. As to conditions: 1 umol/L; for % Measurement value of Activated form (conversion rate to 2-acetylnaphtho[2,3-b]furan-4,9-dione): CD1, mouse. Here is the method: as §1, §2, §3, §4, §5
(§6) Measurement values are calculated from the peak area ratio in LC-MS between an internal standard material, phenytoin and an active form, 2-acetylnaphtho[2,3-b]furan-4,9-dione, and are expressed in %.
(§7) In the same way as Example 6, the incubation time was set as 120 minutes later, and the conversion rate of each of various test compounds to 2-acetylnaphtho[2,3-b]furan-4,9-dione in human plasma, CD1 mouse plasma, and pH 7.4 phosphate buffer solution was measured. A series of the present compounds were confirmed to be converted to 2-acetylnaphtho[2,3-b]furan-4,9-dione in pH 7.4 phosphate buffer solution in addition to human plasma and CD1 mouse plasma. Therefore, a series of the test compounds of the present invention were confirmed to be converted to the activated form via a route other than an enzymatic conversion.

A short description of series [3]: Evaluation of a conversion rate to 2-acetylnaphtho[2,3-b]furan-4,9-dione in pH 7.4 phosphate buffer solution. Type of series: physicochemical. As to conditions: 1 umol/L, 37° C.; for % Measurement value of Activated form (conversion rate to 2-acetylnaphtho[2,3-b]furan-4,9-dione): formed from Example 6, phosphate buffer solution (pH 7.4); for % Measurement value (conversion rate to 2-acetylnaphtho[2,3-b]furan-4,9-dione): Phosphate buffer solution (pH 7.4). Here is the method: as §1, §2, §3, §4, §5, §6, §7

Series [4] in a line: Solubility test. As to conditions: 50 mmol/L glycine buffer solution (pH 2.0), room temperature, 24 hours shaking.
Experimental: A water-soluble prodrug was added into 50 mmol/L glycine buffer solution (pH 2.0). After shaking at room temperature for 24 hours, the mixture was filtered through a membrane filter, and then the filtrate was measured with HPLC.
The measurement condition of HPLC is as described below. HPLC condition column: Acquity UPLC BEH C18, 1.7 um, 50×2.1 mm
Mobile phase: A: 0.1% trifluoroacetic acid-containing water

Regarding `CC(=O)c1cc2c(o1)C(=O)c1ccccc1C2=O` [Activated form, 2-acetylnaphtho[2,3-b]furan-4,9-dione, reference compound], the “% Measurement value of Activated form (conversion rate to 2-acetylnaphtho[2,3-b]furan-4,9-dione)” value (shortened to “% Measurement value of Activated form”) stood at 0% in series [1] (0 min); 24% in series [1] (5 min); 31% in series [1] (10 min); 48% in series [1] (30 min); 64% in series [1] (60 min); 71% in series [1] (120 min). For the same molecule, the “% Measurement value of Activated form” value was 0% in series [2] (0 min); 23% in series [2] (5 min); 31% in series [2] (10 min); 63% in series [2] (30 min); 67% in series [2] (60 min); 76% in series [2] (120 min). Further, the “% Measurement value of Activated form” value in series [3] (incubation time 0 min) came to 0%; in series [3] (incubation time 5 min), 20%; in series [3] (incubation time 10 min) it was 29%; in series [3] (incubation time 30 min) it was 55%; in series [3] (incubation time 60 min), 61%; in series [3] (incubation time 120 min), 78%.
As for `CC(=O)c1cc2c(OC(=O)NC3CCC(N)CC3)c3ccccc3c(OC(=O)NC3CCC(N)CC3)c2o1.Cl.Cl` (stereo not drawn) [Example 7], the “% Measurement value (conversion rate to 2-acetylnaphtho[2,3-b]furan-4,9-dione)” value in series [1] turned out to be 69%; in series [2] (CD1 mouse plasma, 37° C., incubation time 120 min) it was 51%; in series [3] (incubation time 120 min), 41%.
As to `CC(=O)c1cc2c(OC(=O)NCCCNCCOC(N)=O)c3ccccc3c(OC(=O)NCCCNCCOC(N)=O)c2o1.Cl.Cl` [Example 66], the “% Measurement value (conversion rate to 2-acetylnaphtho[2,3-b]furan-4,9-dione)” value is 59% in series [1] and 44% in series [3] (incubation time 120 min). Moreover, the “Solubility in pH 2.0 buffer solution” value in series [4] was greater than 5.0 mg/mL.
For `COC(=O)NCCNCCNC(=O)Oc1c2ccccc2c(OC(=O)NCCNCCNC(=O)OC)c2oc(C(C)=O)cc12.Cl.Cl` [Example 67], the “% Measurement value (conversion rate to 2-acetylnaphtho[2,3-b]furan-4,9-dione)” value in series [1] is reported as 78%; in series [3] (incubation time 120 min), 60%. In addition, in series [4], the “Solubility in pH 2.0 buffer solution” value is greater than 5.0 mg/mL.
For the molecule `COC(=O)NCCNCCCNC(=O)Oc1c2ccccc2c(OC(=O)NCCCNCCNC(=O)OC)c2oc(C(C)=O)cc12.Cl.Cl` [Example 68], the “% Measurement value (conversion rate to 2-acetylnaphtho[2,3-b]furan-4,9-dione)” value stood at 73% in series [1] and 59% in series [3] (incubation time 120 min). For the same molecule, in series [4], the “Solubility in pH 2.0 buffer solution” value is greater than 5.0 mg/mL.
Regarding `COC(=O)OCCNCCNC(=O)Oc1c2ccccc2c(OC(=O)NCCNCCOC(=O)OC)c2oc(C(C)=O)cc12.Cl.Cl` [Example 69], the “% Measurement value (conversion rate to 2-acetylnaphtho[2,3-b]furan-4,9-dione)” value amounted to 90% in series [1] and 71% in series [3] (incubation time 120 min). Besides, the “Solubility in pH 2.0 buffer solution” value in series [4] is greater than 5.0 mg/mL.
Regarding `COC(=O)OCCNCCCNC(=O)Oc1c2ccccc2c(OC(=O)NCCCNCCOC(=O)OC)c2oc(C(C)=O)cc12.Cl.Cl` [Example 70], the figures for the “% Measurement value (conversion rate to 2-acetylnaphtho[2,3-b]furan-4,9-dione)” value in series [1] and in series [3] (incubation time 120 min) were 66% and 48%, respectively. The “Solubility in pH 2.0 buffer solution” value in series [4] is greater than 5.0 mg/mL.
For `CC(=O)c1cc2c(O)c3ccccc3c(OC(=O)NCCNCCS(=O)(=O)N(C)C)c2o1.Cl` [Example 79], in that order: 71%, 39% and 0.3 mg/mL.
With `CC(=O)c1cc2c(O)c3ccccc3c(OC(=O)NCCCNCCS(=O)(=O)N(C)C)c2o1.Cl` [Example 80], the figures for the “% Measurement value (conversion rate to 2-acetylnaphtho[2,3-b]furan-4,9-dione)” value in series [1] and in series [3] (incubation time 120 min) were 54% and 32%, respectively. The “Solubility in pH 2.0 buffer solution” value in series [4] is recorded as 1.0 mg/mL.
In the same order, the values of `CC(=O)c1cc2c(O)c3ccccc3c(OC(=O)NCCNCCS(C)(=O)=O)c2o1.Cl` [Example 81] are 74%, 27% and 0.9 mg/mL.
Regarding `CC(=O)c1cc2c(O)c3ccccc3c(OC(=O)NCCCNCCS(C)(=O)=O)c2o1.Cl` [Example 82], the “% Measurement value (conversion rate to 2-acetylnaphtho[2,3-b]furan-4,9-dione)” value in series [1] was 74%; in series [3] (incubation time 120 min), 25%. Further, in series [4], the “Solubility in pH 2.0 buffer solution” value worked out at 0.1 mg/mL.
For `CC(=O)c1cc2c(O)c3ccccc3c(OC(=O)NCCCNCC(=O)NCC(=O)O)c2o1.Cl` [Example 84], in that order: 42%, 31% and greater than 5.0 mg/mL.
For `CC(=O)c1cc2c(O)c3ccccc3c(OC(=O)NCCNCC(=O)N3CCC3)c2o1.Cl` [Example 85], in that order: 38%, 37% and 4.1 mg/mL.
For `CC(=O)c1cc2c(O)c3ccccc3c(OC(=O)NCCCNCC(=O)N3CCC3)c2o1.Cl` [Example 86], the “% Measurement value (conversion rate to 2-acetylnaphtho[2,3-b]furan-4,9-dione)” value is recorded as 55% in series [1] and 38% in series [3] (incubation time 120 min). Besides, the “Solubility in pH 2.0 buffer solution” value in series [4] is greater than 5.0 mg/mL.
For `CC(=O)c1cc2c(O)c3ccccc3c(OC(=O)NCCNCCOC(N)=O)c2o1.Cl` [Example 87], in that order: 38%, 36% and 4.0 mg/mL.
As for `CC(=O)c1cc2c(O)c3ccccc3c(OC(=O)NCCCNCCOC(N)=O)c2o1.Cl` [Example 88], the “% Measurement value (conversion rate to 2-acetylnaphtho[2,3-b]furan-4,9-dione)” value in series [1] came to 27%; in series [3] (incubation time 120 min), 26%. Further, the “Solubility in pH 2.0 buffer solution” value in series [4] is recorded as 3.2 mg/mL.
In the same order, the values of `COC(=O)NCCNCCNC(=O)Oc1c2ccccc2c(O)c2cc(C(C)=O)oc12.Cl` [Example 89] are 63%, 58% and greater than 5.0 mg/mL.
For `COC(=O)OCCNCCNC(=O)Oc1c2ccccc2c(O)c2cc(C(C)=O)oc12.Cl` [Example 91], in that order: 61%, 45% and 3.6 mg/mL.
In the same order, the values of `COC(=O)OCCNCCCNC(=O)Oc1c2ccccc2c(O)c2cc(C(C)=O)oc12.Cl` [Example 92] are 34%, 26% and greater than 5.0 mg/mL.
As for “Dimethyl 4,4′-((((2-acetylnaphtho[2,3-b]furan-4,9-diyl)bis(oxy))bis(carbonyl))bis-(azanediyl))(2S,2′S)-bis(2-aminobutanoate)dimethanesulfonate salt [Example 104]”, the “% Measurement value (conversion rate to 2-acetylnaphtho[2,3-b]furan-4,9-dione)” value in series [1] came to 82%; in series [3] (incubation time 120 min) it was 57%. In series [4], the “Solubility in pH 2.0 buffer solution” value is listed as greater than 5.0 mg/mL.
